Test results from patent US4247559A, “N-substituted maleimides in liquid concentrates” (Abbott Laboratories, priority 1979, dated 1981).

Columns and labels:
Format in all cases: cell-based
[1] = system: A. niger and P. funiculosum; test: antifungal test on agar plates, visual inspection of growth; set-up: unit not given here; conditions: agar plates, 10,000 units each, 30° C. for two weeks
Protocol: In a related test, the above biocide solutions are added to agar plates at various concentrations and the plates are then inoculated with 1 ml. of a broth containing 10,000 units each of A. niger and P. funiculosum. The plates are then incubated at 30° C. for two weeks, and growth of the fungi is visually inspected to establish the minimum inhibitory concentration (MIC).

[2] = system: Aerobacter aerogenes, Pseudomonoas Sp., Bacillus subtilus and Bacillus megaterium; test: antibacterial test in nutrient broth tubes, presence or absence of turbidity; set-up: unit not given here; conditions: 48 hours at 37° C., subcultured and incubated 24 hours longer, challenge 1×10^6 colony-forming units each
Protocol: (§1) The new compounds are dissolved in DMF at a concentration of 50 mg/ml. and diluted with water to the appropriate concentration to be added to a nutrient broth in test tubes. The challenge mixture contains 1×10^6 colony-forming units each of Aerobacter aerogenes, Pseudomonoas Sp., Bacillus subtilus and Bacillus megaterium. Following inoculation, the tubes are incubated 48 hours at 37° C., subcultured to fresh nutrient broth and incubated 24 hours longer. The results are recorded as presence or absence of turbidity, turbidity indicating growth of the inoculum due to inactivity of the biocide at the concentration used in the broth.

[3] = system: most common industrial fungi and bacteria; test: biocidal activity (summary statements on bacteria and fungi); conditions: conclusion from the table, in words
Protocol: as §1, with “broth. In a related test, the above biocide solutions are added to agar plates at various concentrations and the plates are then inoculated with 1 ml. of a broth containing 10,000 units each of A. niger and P. funiculosum. The plates are then incubated at 30° C. for two weeks, and growth of the fungi is visually inspected to establish the minimum inhibitory concentration (MIC).” for “broth.”

Structure (SMILES) | Antifungal MIC [1] | Antibacterial MIC [2] | biocidal activity [3]
O=C1C=CC(=O)N1c1ccc(S(=O)(=O)CI)cc1 [R= p-CH2 I] | 100 |  | 
O=C1C=CC(=O)N1c1ccc(S(=O)(=O)C(I)I)cc1 [R= p-CHI2, N-[p-(diiodomethylsulfonyl)phenyl]maleimide] | 1000 | 1000 | 
O=C1C=CC(=O)N1c1ccc(S(=O)(=O)C(Cl)(Cl)Cl)cc1 [R= CCL3, reference compound] | inactive | inactive | ineffective
O=C1C=CC(=O)N1c1ccc(S(=O)(=O)C(Cl)Cl)cc1 [R= p-CHCl2, N-[p-(dichloromethylsulfonyl)phenyl]maleimide] | 1000 | 1000 | 
O=C1C=CC(=O)N1c1ccc(S(=O)(=O)CCl)cc1 [R=p-CH2 Cl, N-[p-(chloromethylsulfonyl)phenyl]maleimide] | 1000 | 1000 | 
